{
  "source": "patent US20140130208A1",
  "about": "“METHODS AND MEANS TO PRODUCE ABIOTIC STRESS TOLERANT PLANTS” (VIB VZW, priority 2011, published 2014)",
  "key": {"[1]": {"tested_on": "CYCB1;1:Dbox-GUS reporter line", "experiment": "CYCB1;1:DBox-GUS staining of mitotic activity in leaf 3", "assay_type": "in vivo, Arabidopsis thaliana", "conditions": "48 h after transfer to 25 mM mannitol or 5 μM ACC", "protocol": "Arabidopsis seedlings were germinated and grown on nylon meshes overlaying control medium until 9 days after stratification (DAS), when the third true leaf is fully proliferating (Skirycz et al., 2010), and subsequently transferred to control or mannitol-containing medium (FIGS. 1A to 10). Kinematic analysis was performed, whereby leaves were harvested daily throughout development of leaf 3 (9-20 DAS) and based on drawings of the abaxial epidermis cell number, cell area, number of guard cells and cell division and cell expansion rates were calculated (De Veylder et al., 2001). […] Leaf and plant morphology were not altered by mannitol (FIG. 2C). Cell expansion was also affected by stress and the reduced final leaf area was a combination of fewer and smaller cells (FIG. 2D). The stomatal index, which represents the number of stomata as a fraction of the total number of cells, was reduced as well (FIG. 2E). To learn more about the mechanisms underlying the rapid reduction of cell division upon stress onset, we harvested leaf samples daily after transfer. As a measure of cellular differentiation, the ploidy distribution was examined by flow cytometry. […] In stressed leaves, 4C nuclei started to accumulate approximately one day earlier than in controls at the expense of 2C nuclei (FIG. 3A). […]"}, "[2]": {"tested_on": "proliferating leaf primordia transcriptome", "experiment": "ATH1 whole-genome transcript profiling of proliferating leaf primordia", "assay_type": "in vivo, Arabidopsis thaliana", "excerpt": "To obtain a better understanding of the molecular mechanisms inhibiting cell division during stress, we subjected proliferating leaf primordia to whole-genome transcript profiling. […] Selected microarray data could be validated with a nCounter platform containing probes for 100 genes involved in growth, stress, and hormonal regulation. Differential transcripts were used to construct Venn diagrams and were subjected to k-means clustering. […] Subsequently, the differential transcripts were examined with PageMan to calculate the functional overrepresentation of MapMan categories (Thimm et al., 2004; Usadel et al., 2006) and were compared to selected publicly available microarray experiments (see “Materials and Methods”). To explain the reduced cell proliferation rates, cell cycle genes were among the prime suspects. […] Strikingly, the magnitude of change for all of the above-mentioned cell cycle genes was similar (approximately 30%) and occurred only at 24 h (FIG. 6A). Besides the cell cycle-related transcripts, we were particularly interested in genes related to hormonal signaling.\nLeaf 3 was harvested from plants at 1.5, 3, 12, and 24 h. Briefly, whole seedlings were harvested in an excess of RNAlater solution (Ambion) and, after overnight storage at 4° C., dissected under a binocular microscope on a cooling plate with precision microscissors. Dissected leaves were transferred to a new tube, frozen in liquid nitrogen, and ground with a Retsch machine and 3-mm metal balls. Samples were obtained from three independent biological experiments and from multiple plates within the experiment.\nRNA was extracted with TriZol (Invitrogen) according to the manufacturer's instructions with 4 μg of glycogen as carrier during the precipitation step. RNA samples were subjected to DNA digestion with RNase-free DNase I (Roche) and subsequently cleaned up with the RNeasy Mini Kit (Qiagen).\nRNA samples were hybridized to single Affymetrix ATH1 Genome arrays at the VIB Microarray Facility (Leuven, Belgium). Expression data were processed with Robust Multichip Average (RMA) (background correction, normalization, and summarization) as implemented in BioConductor (Irizarry et al., 2003a, 2003b; Gentleman et al., 2004). An alternative cdf (“tinesath1cdf”) was used, in which each probe is uniquely assigned to one transcript (Casneuf et al., 2007) (http://www.bioconductor.org/packages/release/data/experiment/html/tinesath1cdf.html). The BioConductor package Limma was used to identify differentially expressed genes (Smyth, 2004). For comparisons of interest, moderated t statistics were calculated using the eBayes function and P values were corrected for multiple testing for each contrast separately using topTable. False-discovery rate (FDR)-corrected p-value<0.05 was used as a cut-off (Benjamini and Hochberg, 1995)."}, "[3]": {"conditions": "1.5 h after transfer to 25 mM mannitol"}, "[4]": {"conditions": "3 h after transfer to 25 mM mannitol"}, "[5]": {"conditions": "12 h after transfer to 25 mM mannitol"}, "[6]": {"conditions": "24 h after transfer to 25 mM mannitol"}},
  "data": [
    {"compound": "OC[C@@H](O)[C@@H](O)[C@H](O)[C@H](O)CO", "note": "[mannitol]", "values": [
      {"measurement": "number of mitotic cells (CYCB1;1:DBox-GUS activity)", "setting": "[1]", "value": "reduced number of mitotic cells"},
      {"measurement": "number of down-regulated transcripts", "setting": "[2]; [3]", "value": 31},
      {"measurement": "number of up-regulated transcripts", "setting": "[2]; [3]", "value": 27},
      {"measurement": "number of down-regulated transcripts", "setting": "[2]; [4]", "value": 145},
      {"measurement": "number of up-regulated transcripts", "setting": "[2]; [4]", "value": 189},
      {"measurement": "number of down-regulated transcripts", "setting": "[2]; [5]", "value": 84},
      {"measurement": "number of up-regulated transcripts", "setting": "[2]; [5]", "value": 351},
      {"measurement": "magnitude of change (down-regulation) of cell cycle genes", "setting": "[2]; 24 h after stress onset", "value": "approximately 30%"},
      {"measurement": "number of down-regulated transcripts", "setting": "[2]; [6]", "value": 622},
      {"measurement": "number of up-regulated transcripts", "setting": "[2]; [6]", "value": 886}
    ]}
  ]
}
